In series [1] the test system is classical complement pathway. The series can be described thus: In vitro haemolysis assay (inhibition of classical complement pathway). The class given is cell-based, human. The settings on record: human serum, sensitized sheep red blood cells; Table 3, given as upper bounds; read-out: IC50, inhibition of hemolysis. The procedure, abridged:
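Compound dilutions preincubated 15 min at room temperature with diluted human serum (titrated per batch for 70-90% maximal haemolysis), then antibody-sensitized sheep RBC (10^7/well) added for 30 min at 37 °C in Tris/casein buffer, pH 7.4. Stopped with EDTA; haemolysis read at 405 nm; IC50 by 4PL fit.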

Series [2] can be described thus: Solubility test at 10 mg/mL (visual inspection and light scattering). The class given is physicochemical. To be noted: for Solubility, Condition 1: Acetate pH 4; for Solubility, Condition 2: Acetate pH 5; for Solubility, Condition 3: Phosphate pH 6; for Solubility, Condition 4: Phosphate pH 7; for Solubility, Condition 5: Phosphate pH 7.5.
Series [3] concerns the target Human C3 (Complement tech cat #A113c) (human, UniProt P01024 23-1663). The series can be described thus: cell-based or functional assay.

Starred links: 1 amine or outer side, 2 acyl side, 3 side chain; linkers in the order of their positions; H or OH if unused. Positions of bridges follow the written chain, without caps; N, C: chain ends. Non-standard residues stand in square brackets, D forms with d. Residues, ends and D or L forms follow the SMILES beside them. Groups on a side chain read outwards from the residue. *: point of attachment. (Piperazine-1-yl)‑acetyl = piperazin-1-yl-acetyl spacer, O=C(CN1CCN([*:1])CC1)[*:2]; Trp(1-Me) = Cn1cc(C[C@H](N)C(=O)O)c2ccccc21; C18 diacid = O=C(O)CCCCCCCCCCCCCCCCC(=O)*; C16 diacid = O=C(O)CCCCCCCCCCCCCCC(=O)*; γGlu = O=C(O)[C@H](CCC(=O)[*:2])N[*:1]; 2Nal = N[C@@H](Cc1ccc2ccccc2c1)C(=O)O; AEEA = NCCOCCOCC(=O)O; Sar = CNCC(=O)O

We go through seven molecules from US11965039B2, “Compstatin analogues and their medical uses” (priority 2018, dated 2024).

Chain of Human C3 (Complement tech cat #A113c) (P01024 23-1663 limits assumed): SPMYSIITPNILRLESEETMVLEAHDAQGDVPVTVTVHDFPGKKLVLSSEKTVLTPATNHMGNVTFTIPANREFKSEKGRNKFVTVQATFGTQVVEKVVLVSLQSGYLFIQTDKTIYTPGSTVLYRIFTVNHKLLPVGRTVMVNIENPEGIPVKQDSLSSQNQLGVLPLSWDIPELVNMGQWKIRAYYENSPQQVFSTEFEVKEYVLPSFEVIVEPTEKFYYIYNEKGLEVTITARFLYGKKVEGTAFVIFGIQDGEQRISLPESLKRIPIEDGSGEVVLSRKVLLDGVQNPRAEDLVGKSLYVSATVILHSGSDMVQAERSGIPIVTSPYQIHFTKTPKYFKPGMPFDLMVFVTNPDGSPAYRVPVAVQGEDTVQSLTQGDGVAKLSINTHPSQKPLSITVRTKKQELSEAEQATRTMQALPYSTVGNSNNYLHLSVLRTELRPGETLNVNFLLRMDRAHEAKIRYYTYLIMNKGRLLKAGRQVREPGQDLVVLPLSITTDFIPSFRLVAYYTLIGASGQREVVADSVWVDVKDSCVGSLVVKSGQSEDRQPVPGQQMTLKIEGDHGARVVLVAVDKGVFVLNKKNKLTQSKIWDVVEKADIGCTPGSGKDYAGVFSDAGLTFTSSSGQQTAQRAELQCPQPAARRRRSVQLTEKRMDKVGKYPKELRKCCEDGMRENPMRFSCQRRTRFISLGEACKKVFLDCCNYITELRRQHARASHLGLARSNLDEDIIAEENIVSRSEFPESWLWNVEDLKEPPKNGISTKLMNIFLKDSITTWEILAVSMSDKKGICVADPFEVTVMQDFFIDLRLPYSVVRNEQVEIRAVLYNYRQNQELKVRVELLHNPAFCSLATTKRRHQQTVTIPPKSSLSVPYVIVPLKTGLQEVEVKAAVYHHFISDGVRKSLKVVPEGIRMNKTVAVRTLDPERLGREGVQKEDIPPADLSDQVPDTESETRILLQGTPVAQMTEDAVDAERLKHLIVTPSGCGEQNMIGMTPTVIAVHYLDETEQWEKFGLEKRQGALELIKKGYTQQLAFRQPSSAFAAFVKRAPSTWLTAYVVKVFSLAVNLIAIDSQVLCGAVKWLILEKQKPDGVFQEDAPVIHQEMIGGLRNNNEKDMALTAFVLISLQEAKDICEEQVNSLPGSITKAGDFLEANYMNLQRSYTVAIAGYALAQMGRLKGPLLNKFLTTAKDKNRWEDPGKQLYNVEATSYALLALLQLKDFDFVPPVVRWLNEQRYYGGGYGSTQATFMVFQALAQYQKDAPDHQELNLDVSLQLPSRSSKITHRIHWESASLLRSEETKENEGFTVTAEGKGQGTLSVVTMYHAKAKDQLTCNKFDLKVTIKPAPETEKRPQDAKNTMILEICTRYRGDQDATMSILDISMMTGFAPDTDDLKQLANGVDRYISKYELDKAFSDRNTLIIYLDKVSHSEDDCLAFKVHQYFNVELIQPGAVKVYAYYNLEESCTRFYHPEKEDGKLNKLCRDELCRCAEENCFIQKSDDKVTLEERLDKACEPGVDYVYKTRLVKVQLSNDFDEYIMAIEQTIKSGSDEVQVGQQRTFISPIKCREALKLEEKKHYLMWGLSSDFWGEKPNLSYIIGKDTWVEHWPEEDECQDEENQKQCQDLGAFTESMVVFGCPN

For the molecule `CC[C@H](C)[C@H](NC(=O)[C@H](C)NC(=O)[C@H](CO)NC(=O)CNC(=O)[C@H](CCC(=O)O)NC(C)=O)C(=O)N[C@H]1CSSC[C@@H](C(=O)N(C)CC(=O)N[C@@H](CCC(=O)O)C(N)=O)NC(=O)[C@H](CCCNC(=N)N)NC(=O)[C@H](Cc2c[nH]cn2)NC(=O)[C@H](CCC(=O)O)NC(=O)CNC(=O)[C@H](Cc2c[nH]c3ccccc23)NC(=O)[C@H](CC(=O)O)NC(=O)[C@H](CCC(N)=O)NC(=O)[C@H](Cc2ccc3ccccc3c2)NC(=O)[C@H]([C@@H](C)CC)NC1=O` [Compound 50] (Ac-EGSAICI[2Nal]QDWGEHRC[Sar]E-NH2; disulfide 6-16), the IC50 in series [1] was below 0.1 µM. Further, in series [2], the “Solubility, Condition 1” value was “− (“−” denotes lack of solubility at the given condition, as UV absorbance at 340 nm exceeds 0.1 AU and/or it is visibly turbid or contains particles)”; the “Solubility, Condition 2” value is “− (“−” denotes lack of solubility at the given condition, as UV absorbance at 340 nm exceeds 0.1 AU and/or it is visibly turbid or contains particles)”; the “Solubility, Condition 3” value was “+ (“+” denotes solubility at the given condition, as determined by UV absorbance being less than 0.1 AU at 340 nm and the sample being clear when manually inspected)”; the “Solubility, Condition 4” value is “+ (“+” denotes solubility at the given condition, as determined by UV absorbance being less than 0.1 AU at 340 nm and the sample being clear when manually inspected)”. Besides, the “Solubility, Condition 5” value in series [2] was “+ (“+” denotes solubility at the given condition, as determined by UV absorbance being less than 0.1 AU at 340 nm and the sample being clear when manually inspected)”.
`CC[C@H](C)[C@@H]1NC(=O)[C@@H](NC(=O)[C@H](Cc2ccccc2)NC(=O)[C@H](CCC(=O)O)NC(=O)[C@H](CO)NC(C)=O)CSSC[C@@H](C(=O)N(C)CC(=O)N[C@@H](CCC(=O)O)C(N)=O)NC(=O)[C@H](CCCNC(=N)N)NC(=O)[C@H](Cc2c[nH]cn2)NC(=O)[C@H](CCC(=O)O)NC(=O)CNC(=O)[C@H](Cc2c[nH]c3ccccc23)NC(=O)[C@H](CC(=O)O)NC(=O)[C@H](CCC(N)=O)NC(=O)[C@H](Cc2cn(C)c3ccccc23)NC1=O` [Compound 78] (Ac-SEFCI[Trp(1-Me)]QDWGEHRC[Sar]E-NH2; disulfide 4-14): the IC50 in series [1] was below 0.1 µM. Also, in series [2], the “Solubility, Condition 1” value was “− (“−” denotes lack of solubility at the given condition, as UV absorbance at 340 nm exceeds 0.1 AU and/or it is visibly turbid or contains particles)”; the “Solubility, Condition 2” value is given as “− (“−” denotes lack of solubility at the given condition, as UV absorbance at 340 nm exceeds 0.1 AU and/or it is visibly turbid or contains particles)”; the “Solubility, Condition 3” value is “+ (“+” denotes solubility at the given condition, as determined by UV absorbance being less than 0.1 AU at 340 nm and the sample being clear when manually inspected)”; the “Solubility, Condition 4” value is “+ (“+” denotes solubility at the given condition, as determined by UV absorbance being less than 0.1 AU at 340 nm and the sample being clear when manually inspected)”. The “Solubility, Condition 5” value in series [2] is “+ (“+” denotes solubility at the given condition, as determined by UV absorbance being less than 0.1 AU at 340 nm and the sample being clear when manually inspected)”.
On to `CC[C@H](C)[C@H](NC(C)=O)C(=O)N[C@H]1CSSC[C@@H](C(=O)N[C@@H](CCC(=O)O)C(N)=O)NC(=O)[C@H](CCCNC(=N)N)NC(=O)[C@H](Cc2c[nH]cn2)NC(=O)[C@H](CCC(=O)O)NC(=O)CNC(=O)[C@H](Cc2c[nH]c3ccccc23)NC(=O)[C@H](CC(=O)O)NC(=O)[C@H](CCC(N)=O)NC(=O)[C@H](Cc2c[nH]c3ccccc23)NC(=O)[C@H]([C@@H](C)CC)NC1=O` [Compound 22] (Ac-ICIWQDWGEHRCE-NH2; disulfide 2-12), for which, in series [1], the IC50 was below 0.1 µM. Also, in series [2], the “Solubility, Condition 1” value was “+ (“+” denotes solubility at the given condition, as determined by UV absorbance being less than 0.1 AU at 340 nm and the sample being clear when manually inspected)”; the “Solubility, Condition 2” value was “− (“−” denotes lack of solubility at the given condition, as UV absorbance at 340 nm exceeds 0.1 AU and/or it is visibly turbid or contains particles)”; the “Solubility, Condition 3” value is reported as “− (“−” denotes lack of solubility at the given condition, as UV absorbance at 340 nm exceeds 0.1 AU and/or it is visibly turbid or contains particles)”; the “Solubility, Condition 4” value is “+ (“+” denotes solubility at the given condition, as determined by UV absorbance being less than 0.1 AU at 340 nm and the sample being clear when manually inspected)”. The “Solubility, Condition 5” value in series [2] is “+ (“+” denotes solubility at the given condition, as determined by UV absorbance being less than 0.1 AU at 340 nm and the sample being clear when manually inspected)”.

B1: Compound 97 (peptide)
peptide: Ac-ICIWQDWGEHRCTEGEK([AEEA-AEEA-γGlu-C18 diacid])-NH2
modifications: disulfide 2-12
SMILES: CC[C@H](C)[C@H](NC(C)=O)C(=O)N[C@H]1CSSC[C@@H](C(=O)N[C@H](C(=O)N[C@@H](CCC(=O)O)C(=O)NCC(=O)N[C@@H](CCC(=O)O)C(=O)N[C@@H](CCCCNC(=O)COCCOCCNC(=O)COCCOCCNC(=O)CC[C@H](NC(=O)CCCCCCCCCCCCCCCCC(=O)O)C(=O)O)C(N)=O)[C@@H](C)O)NC(=O)[C@H](CCCNC(=N)N)NC(=O)[C@H](Cc2c[nH]cn2)NC(=O)[C@H](CCC(=O)O)NC(=O)CNC(=O)[C@H](Cc2c[nH]c3ccccc23)NC(=O)[C@H](CC(=O)O)NC(=O)[C@H](CCC(N)=O)NC(=O)[C@H](Cc2c[nH]c3ccccc23)NC(=O)[C@H]([C@@H](C)CC)NC1=O
Regarding B1, the “inhibition of hemolysis IC50” value in series [3] is below 0.25 µM.

B2: Compound 94 (peptide)
peptide: Ac-ICIWQDWGEHRCTEGEK([AEEA-AEEA-γGlu-C16 diacid])-NH2
modifications: disulfide 2-12
SMILES: CC[C@H](C)[C@H](NC(C)=O)C(=O)N[C@H]1CSSC[C@@H](C(=O)N[C@H](C(=O)N[C@@H](CCC(=O)O)C(=O)NCC(=O)N[C@@H](CCC(=O)O)C(=O)N[C@@H](CCCCNC(=O)COCCOCCNC(=O)COCCOCCNC(=O)CC[C@H](NC(=O)CCCCCCCCCCCCCCC(=O)O)C(=O)O)C(N)=O)[C@@H](C)O)NC(=O)[C@H](CCCNC(=N)N)NC(=O)[C@H](Cc2c[nH]cn2)NC(=O)[C@H](CCC(=O)O)NC(=O)CNC(=O)[C@H](Cc2c[nH]c3ccccc23)NC(=O)[C@H](CC(=O)O)NC(=O)[C@H](CCC(N)=O)NC(=O)[C@H](Cc2c[nH]c3ccccc23)NC(=O)[C@H]([C@@H](C)CC)NC1=O
With B2, the “inhibition of hemolysis IC50” value in series [3] was below 0.5 µM.
The same measure, in the same setting: to Ac-ICIWQDWGEHRCTEGK([AEEA-AEEA-(Piperazine-1-yl)‑acetyl-C16 diacid])-NH2 (disulfide 2-12) [Compound 95] belongs below 0.5 µM.

B3: Compound 96 (peptide)
peptide: Ac-ICIWQDWGEHRCTEGK([AEEA-AEEA-γGlu-C18 diacid])-NH2
modifications: disulfide 2-12
SMILES: CC[C@H](C)[C@H](NC(C)=O)C(=O)N[C@H]1CSSC[C@@H](C(=O)N[C@H](C(=O)N[C@@H](CCC(=O)O)C(=O)NCC(=O)N[C@@H](CCCCNC(=O)COCCOCCNC(=O)COCCOCCNC(=O)CC[C@H](NC(=O)CCCCCCCCCCCCCCCCC(=O)O)C(=O)O)C(N)=O)[C@@H](C)O)NC(=O)[C@H](CCCNC(=N)N)NC(=O)[C@H](Cc2c[nH]cn2)NC(=O)[C@H](CCC(=O)O)NC(=O)CNC(=O)[C@H](Cc2c[nH]c3ccccc23)NC(=O)[C@H](CC(=O)O)NC(=O)[C@H](CCC(N)=O)NC(=O)[C@H](Cc2c[nH]c3ccccc23)NC(=O)[C@H]([C@@H](C)CC)NC1=O
Consider B3, for which, in series [3], the “inhibition of hemolysis IC50” value is below 1 µM.

In general, IC50 refers to the concentration that inhibits the measured activity by half.
